# Columns and labels:
# PI3Kbeta = PI3Kbeta (Homo sapiens, UniProt P42338); assay: Biochemical PI3Kbeta assay (neomycin SPA, lipid phosphorylation); settings: human recombinant GST-PI3K
# Procedure: (§1) The efficacy of the compounds according to the invention in the inhibition of PI3K-induced lipid phosphorylation can be investigated in the following binding assay. The assay combines scintillation proximity assay (SPA) technology (Amersham) with the ability of neomycin (a polycationic antibiotic) to bind phospholipids with high affinity and specificity. […] The coating of SPA beads with neomycin allows the detection of phosphorylated lipid substrates after incubation with recombinant PI3K and radioactive ATP in the same well by trapping the radioactive phospholipids by the SPA beads owing to their specific binding to neomycin. […] After incubation at room temperature for 120 minutes with gentle stirring, the reaction was stopped by addition of 200 μl of a solution comprising 250 μg of neomycin-coated PVT-SPA beads, ATP 60 mM and EDTA 6.2 mM in PBS. The assay is incubated at room temperature for a further 60 minutes with gentle stirring in order to enable binding of the phospholipids to the neomycin-SPA beads. After precipitation of the neomycin-coated PVT-SPA beads over 5 minutes at 1500×g, radioactive Ptdlns(3)P is quantified by scintillation counting in a Wallac Micro-Beta™ plate counter.
# [1] = system: PI3K-dependent phosphorylation of PKB at Serin 473 in PC3 cells; assay: Cellular PI3K assay (P-S473-PKB Luminex assay in PC3 cells); assay type: cell-based; settings: Homo sapiens, PC-3, 0.5 h; PC3 cells, 30 min, serum-free, P-S473-PKB; read-out: IC50 (cell)
# Procedure: The cellular assay for determination of the P-S473-PKB level is carried out as a Luminex assay in 96-well format in PC3 cells.
# PC3 cells are sown out with 20,000 cells per well in 100 μl medium (45% […]/45% Ham's F12/10% FCS) and incubated on the following day for 30 min with a serial dilution of the test substance (7 concentrations) under serum-free conditions. The cells are subsequently lysed using 90 μl of lysis buffer (20 mM Tris/HCl pH 8.0, 150 mM NaCl, 1% NP40, 10% glycerol, 1% phosphatase inhibitor I, 1% phosphatase inhibitor II, 0.1% protease inhibitor cocktail III, 0.01% benzonase) per well, and the lysates are separated off from insoluble cell constituents by means of centrifugation through a 96-well filter plate (0.65 μm). The lysates are incubated overnight at 4° C. with shaking with Luminex beads to which an anti-total PKB antibody is coupled. The detection is carried out on the following day by addition of a P-S473-PKB antibody and a species-specific PE-labelled secondary antibody. The detection of P-S473-PKB is carried out by measurement in a Luminex100 instrument by determination of 100 events per cavity in a measurement time of 60 sec.
# PI3Kalpha = PI3Kalpha (Homo sapiens, UniProt P42336); assay: Biochemical PI3Kalpha assay (neomycin SPA, lipid phosphorylation); settings: human recombinant GST-PI3K
# Sequence of PI3Kalpha (P42336 whole entry): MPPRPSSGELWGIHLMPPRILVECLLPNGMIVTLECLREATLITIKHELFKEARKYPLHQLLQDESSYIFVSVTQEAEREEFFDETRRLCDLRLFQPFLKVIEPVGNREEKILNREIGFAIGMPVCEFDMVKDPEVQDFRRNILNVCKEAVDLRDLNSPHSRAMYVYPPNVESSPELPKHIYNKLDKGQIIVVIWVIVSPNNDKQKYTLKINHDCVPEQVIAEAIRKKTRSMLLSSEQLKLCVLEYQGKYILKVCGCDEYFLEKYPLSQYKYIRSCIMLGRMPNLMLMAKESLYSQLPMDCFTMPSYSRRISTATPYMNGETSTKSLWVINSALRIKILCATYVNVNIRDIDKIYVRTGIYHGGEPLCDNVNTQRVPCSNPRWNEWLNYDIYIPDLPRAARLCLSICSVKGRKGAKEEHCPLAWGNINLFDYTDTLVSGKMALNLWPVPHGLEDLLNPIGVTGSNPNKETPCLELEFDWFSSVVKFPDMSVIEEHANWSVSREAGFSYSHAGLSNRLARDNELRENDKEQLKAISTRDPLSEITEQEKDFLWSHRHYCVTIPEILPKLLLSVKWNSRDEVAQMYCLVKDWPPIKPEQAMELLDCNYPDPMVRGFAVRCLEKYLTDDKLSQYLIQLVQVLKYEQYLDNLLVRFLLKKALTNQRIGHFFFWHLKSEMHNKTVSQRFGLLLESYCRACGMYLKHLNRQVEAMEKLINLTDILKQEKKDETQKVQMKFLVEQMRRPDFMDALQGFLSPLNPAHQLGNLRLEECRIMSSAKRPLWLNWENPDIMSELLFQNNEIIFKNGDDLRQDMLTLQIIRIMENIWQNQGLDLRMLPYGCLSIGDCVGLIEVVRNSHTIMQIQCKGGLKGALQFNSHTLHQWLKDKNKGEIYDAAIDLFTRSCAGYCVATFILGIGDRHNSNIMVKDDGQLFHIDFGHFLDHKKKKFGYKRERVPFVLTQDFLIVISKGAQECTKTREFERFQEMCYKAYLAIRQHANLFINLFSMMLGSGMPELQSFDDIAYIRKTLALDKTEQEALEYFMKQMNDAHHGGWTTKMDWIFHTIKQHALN
# Sequence of PI3Kalpha (P27986 whole entry partner): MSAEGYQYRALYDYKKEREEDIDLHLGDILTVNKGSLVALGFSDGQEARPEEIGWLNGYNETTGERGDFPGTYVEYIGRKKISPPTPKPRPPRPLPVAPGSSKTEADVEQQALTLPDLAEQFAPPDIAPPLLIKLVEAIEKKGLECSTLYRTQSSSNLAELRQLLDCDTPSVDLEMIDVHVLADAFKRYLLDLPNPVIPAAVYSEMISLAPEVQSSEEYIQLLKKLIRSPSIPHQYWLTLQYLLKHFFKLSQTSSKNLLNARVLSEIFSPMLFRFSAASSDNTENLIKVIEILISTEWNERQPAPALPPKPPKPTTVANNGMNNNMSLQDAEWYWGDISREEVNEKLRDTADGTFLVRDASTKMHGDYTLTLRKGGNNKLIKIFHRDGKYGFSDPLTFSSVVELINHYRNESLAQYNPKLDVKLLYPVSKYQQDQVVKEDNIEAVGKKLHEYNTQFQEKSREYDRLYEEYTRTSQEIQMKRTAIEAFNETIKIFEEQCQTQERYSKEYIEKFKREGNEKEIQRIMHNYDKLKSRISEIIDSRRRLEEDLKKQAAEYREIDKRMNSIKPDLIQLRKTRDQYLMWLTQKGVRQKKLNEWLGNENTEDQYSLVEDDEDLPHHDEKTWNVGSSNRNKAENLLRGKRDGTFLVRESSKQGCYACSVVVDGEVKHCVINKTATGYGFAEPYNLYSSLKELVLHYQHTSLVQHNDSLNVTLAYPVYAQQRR
# Procedure: as §1
# [2] = biological target: recombinant PI3Kalpha (shortened form of the catalytic subunit) (Homo sapiens, UniProt P42336); assay: BIACORE PI3K binding assay (SPR); settings: 25° C.
# Sequence of recombinant PI3Kalpha (shortened form of the catalytic subunit) (P42336 151-1068 limits assumed): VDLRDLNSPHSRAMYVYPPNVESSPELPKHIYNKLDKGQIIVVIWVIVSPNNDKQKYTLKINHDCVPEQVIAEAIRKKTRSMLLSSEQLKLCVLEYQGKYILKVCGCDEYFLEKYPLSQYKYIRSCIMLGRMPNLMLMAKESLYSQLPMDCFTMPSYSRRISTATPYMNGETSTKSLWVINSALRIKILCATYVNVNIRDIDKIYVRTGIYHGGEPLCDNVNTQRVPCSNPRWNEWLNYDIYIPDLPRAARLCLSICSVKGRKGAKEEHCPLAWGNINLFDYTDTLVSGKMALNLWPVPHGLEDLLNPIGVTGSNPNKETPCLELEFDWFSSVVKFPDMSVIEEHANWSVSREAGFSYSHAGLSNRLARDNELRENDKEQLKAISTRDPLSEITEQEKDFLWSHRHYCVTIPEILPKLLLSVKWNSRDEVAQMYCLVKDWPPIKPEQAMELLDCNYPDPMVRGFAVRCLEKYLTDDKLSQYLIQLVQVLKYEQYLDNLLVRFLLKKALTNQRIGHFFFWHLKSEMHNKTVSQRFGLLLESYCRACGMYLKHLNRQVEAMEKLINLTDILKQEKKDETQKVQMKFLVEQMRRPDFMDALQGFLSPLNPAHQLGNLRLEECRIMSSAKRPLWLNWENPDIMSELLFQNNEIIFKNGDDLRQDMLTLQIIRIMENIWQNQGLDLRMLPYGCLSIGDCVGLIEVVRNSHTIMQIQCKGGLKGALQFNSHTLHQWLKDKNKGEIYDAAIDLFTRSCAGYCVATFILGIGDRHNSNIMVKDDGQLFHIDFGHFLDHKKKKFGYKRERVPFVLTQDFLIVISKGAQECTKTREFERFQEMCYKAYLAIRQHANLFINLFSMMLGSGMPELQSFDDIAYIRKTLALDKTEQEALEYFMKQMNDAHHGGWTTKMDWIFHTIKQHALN
# Procedure: SPR measurements of the binding affinities and binding kinetics on PI3Kalpha surfaces with the aid of Biacore systems. The experiments are carried out on a Biacore S51 “Compound Characterization” or a Biacore T100 instrument utilising the default application “Kinetics/Affinity” Experimental conditions: recombinant PI3Kalpha (shortened form of the catalytic subunit, missing N terminal from about 100 to 150 aa, Mw about 110 kDa, prepared by Proteros Biostructures GmbH) is immobilised on Biacore CM5 chips (25° C., flow rate: 10 μl/min, utilising amine coupling at pH 7.40—Biacore Standard protocol). PI3Kalpha is employed in concentrations between 10 and 25 μg/ml. Depending on the duration of the injection time, immobilisation levels from 1700 to 11000 RU are achieved. The substances to be measured are added in the form of a titration series. The substance concentration is doubled for each subsequent injection. 10 different substance concentrations which cover a 500-fold dilution range are usually injected. […] Kinetic titration experiments are carried out at 25° C. with a flow rate of 30 μl/min, the sample contact time is 180 s, and the dissociation time is 240 s in a running buffer (20 mM HEPES pH7.40, 150 mM NaCl, 5 mM MgCl2, 1 mM DTT, 0.1 mM EDTA, 0.05% Tween 20) comprising 2% of DMSO. Buffer injections (as double references) identical to the sample injections are carried out in each case at the beginning of a continuous series. Solvent correction cycles (eight correction points, 1.4%-2.8% DMSO) are carried out at equal intervals. In order to condition the surface, at least five start-up cycles (buffer injections) are carried out. Data points are collected with a sample rate of 10 Hz. Surface regeneration is carried out after each measurement cycle, apart from after the solvent correction runs. For this purpose, two times 100 mM NaHCO3 pH 8.60 are injected for 30 sec. Data sets are processed and analysed using the Biacore S51 Evaluation software, version 1.2.1, or Biacore T100 Evaluation, version 2.0. Solvent-corrected and double-referenced association and dissociation phase data are adapted to a simple 1:1 interaction model with mass transport limitations.
# DNA-PK protein complex = DNA-PK protein complex (Homo sapiens, UniProt P78527); assay: Biochemical DNA-PK assay (FlashPlate)
# Procedure: The kinase assay is carried out in […] microtitre FlashPlates®, coated with streptavidin. […] The reaction is stopped by addition of 50 μl/well of 200 mM EDTA. After incubation for 30 minutes, the liquids are removed at room temperature. Each well is washed three times with 100 μl of 0.9% NaCl solution. Non-specific reaction (blank) is determined using a proprietary kinase inhibitor (10 μM). The radioactivity is measured by means of a Topcount. […] Todd Eary, J. G. Schiro, H. Huang, L. E. Burgess, E. A. Kesicki, and J. Halbrook.
# Sequence of PI3Kbeta (P42338 whole entry): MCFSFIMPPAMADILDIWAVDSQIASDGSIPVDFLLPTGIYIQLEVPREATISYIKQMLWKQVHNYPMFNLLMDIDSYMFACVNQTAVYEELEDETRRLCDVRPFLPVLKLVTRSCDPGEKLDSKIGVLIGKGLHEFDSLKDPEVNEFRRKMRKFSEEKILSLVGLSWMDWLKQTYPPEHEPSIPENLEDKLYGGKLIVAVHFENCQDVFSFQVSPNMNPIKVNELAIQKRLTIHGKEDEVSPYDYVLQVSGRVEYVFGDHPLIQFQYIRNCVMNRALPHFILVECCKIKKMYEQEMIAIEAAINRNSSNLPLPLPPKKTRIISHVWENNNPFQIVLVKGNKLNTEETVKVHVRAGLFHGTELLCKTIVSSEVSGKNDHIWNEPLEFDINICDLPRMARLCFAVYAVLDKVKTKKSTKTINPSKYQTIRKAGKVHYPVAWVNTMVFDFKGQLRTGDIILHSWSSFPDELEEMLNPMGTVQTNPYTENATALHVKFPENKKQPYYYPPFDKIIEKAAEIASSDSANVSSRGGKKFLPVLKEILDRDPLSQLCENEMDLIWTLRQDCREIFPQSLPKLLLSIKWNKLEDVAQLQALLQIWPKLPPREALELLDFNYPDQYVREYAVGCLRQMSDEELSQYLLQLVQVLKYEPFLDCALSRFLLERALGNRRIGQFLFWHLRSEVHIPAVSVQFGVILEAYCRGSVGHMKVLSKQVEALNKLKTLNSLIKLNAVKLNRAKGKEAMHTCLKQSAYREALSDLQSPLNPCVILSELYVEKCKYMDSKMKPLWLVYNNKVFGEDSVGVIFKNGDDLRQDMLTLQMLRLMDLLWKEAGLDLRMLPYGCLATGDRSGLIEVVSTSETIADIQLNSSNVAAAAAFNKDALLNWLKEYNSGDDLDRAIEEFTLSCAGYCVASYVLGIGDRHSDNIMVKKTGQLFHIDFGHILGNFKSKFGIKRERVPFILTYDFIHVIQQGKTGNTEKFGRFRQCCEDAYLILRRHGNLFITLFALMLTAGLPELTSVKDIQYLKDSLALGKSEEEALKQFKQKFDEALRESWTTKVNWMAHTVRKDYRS
# Sequence of PI3Kbeta (P27986 whole entry partner): as the sequence (P27986 whole entry partner) above
structure (smiles),measurement,setting,value
"Cn1cc(-c2cc(-c3cnc4[nH]ccc4c3)ccn2)n(-c2ccccc2C(F)(F)F)c1=O [Example A67, 1-Methyl-4-[4-(1H-pyrrolo[2,3-b]pyridin-5-yl)pyridin-2-yl]-3-(2-trifluoromethylphenyl)-1,3-dihydroimidazol-2-one]",IC50,PI3Kbeta,100 to 10000 nM
same,IC50,[1],100 to 10000 nM
same,IC50,PI3Kalpha,100 to 10000 nM
same,Kd,[2],100 to 10000 nM
same,IC50,DNA-PK protein complex,0.1 to 100 nM
"COc1ccc(Cn2c(-c3cc(-c4cnc(N)c(C(F)(F)F)c4)ccn3)cn(C)c2=O)cc1 [Example A110, 4-(6-Amino-5-trifluoromethyl-[3,4′]bipyridinyl-2′-yl)-3-(4-methoxybenzyl)-1-methyl-1,3-dihydroimidazol-2-one]",IC50,PI3Kbeta,100 to 10000 nM
same,IC50,[1],100 to 10000 nM
same,IC50,PI3Kalpha,100 to 10000 nM
same,Kd,[2],100 to 10000 nM
same,IC50,DNA-PK protein complex,100 to 10000 nM
"Cn1cc(-c2cc(-c3cnc4[nH]cnc4c3)ccn2)n(-c2ccc(C(C)(C)C#N)cc2)c1=O [Example A38, 2-(4-{5-[4-(3H-Imidazo[4,5-b]pyridin-6-yl)pyridin-2-yl]-3-methyl-2-oxo-2,3-dihydroimidazol-1-yl}phenyl)-2-methylpropionitrile]",IC50,PI3Kbeta,100 to 10000 nM
same,IC50,[1],100 to 10000 nM
same,IC50,PI3Kalpha,0.1 to 100 nM
same,Kd,[2],0.1 to 100 nM
same,IC50,DNA-PK protein complex,100 to 10000 nM
"Cn1cc(-c2cc(-c3ccc(N)nc3)ccn2)n(-c2ccc(N3CCNCC3)c(C(F)(F)F)c2)c1=O [Example A59, 4-(6-Amino-[3,4′]bipyridinyl-2′-yl)-1-methyl-3-(4-piperazin-1-yl-3-trifluoromethyl-phenyl)-1,3-dihydroimidazol-2-one]",IC50,PI3Kbeta,100 to 10000 nM
same,IC50,[1],100 to 10000 nM
same,IC50,PI3Kalpha,100 to 10000 nM
same,Kd,[2],0.1 to 100 nM
same,IC50,DNA-PK protein complex,0.1 to 100 nM
"Cn1cc(-c2cc(-c3cnc4ccccc4c3)ccn2)n(-c2ccc(N3CCNCC3)c(C(F)(F)F)c2)c1=O [Example A19, 1-Methyl-3-(4-piperazin-1-yl-3-trifluoromethylphenyl)-4-(4-quinolin-3-ylpyridin-2-yl)-1,3-dihydroimidazol-2-one]",IC50,PI3Kbeta,100 to 10000 nM
same,IC50,[1],100 to 10000 nM
same,IC50,PI3Kalpha,100 to 10000 nM
same,Kd,[2],100 to 10000 nM
same,IC50,DNA-PK protein complex,100 to 10000 nM
"Cn1cc(-c2cc(-c3cnc4[nH]ccc4c3)ccn2)n(-c2ccc(C(C)(C)C(=O)O)cc2)c1=O [Example A33, 2-Methyl-2-(4-{3-methyl-2-oxo-5-[4-(1H-pyrrolo[2,3-b]pyridin-5-yl)pyridin-2-yl]-2,3-dihydroimidazol-1-yl}phenyl)propionic acid]",IC50,PI3Kbeta,100 to 10000 nM
same,IC50,[1],> 10000 nM
same,IC50,PI3Kalpha,100 to 10000 nM
same,Kd,[2],0.1 to 100 nM
same,IC50,DNA-PK protein complex,0.1 to 100 nM
"Cn1cc(-c2cc(-c3cnc4[nH]ccc4c3)ccn2)n(-c2ccccc2C#N)c1=O [Example A69, 2-{3-Methyl-2-oxo-5-[4-(1H-pyrrolo[2,3-b]pyridin-5-yl)pyridin-2-yl]-2,3-dihydroimidazol-1-yl}benzonitrile]",IC50,PI3Kbeta,> 10000 nM
same,IC50,[1],> 10000 nM
same,IC50,PI3Kalpha,> 10000 nM
same,Kd,[2],100 to 10000 nM
same,IC50,DNA-PK protein complex,> 10000 nM
"COC(=O)c1c[nH]c2ncc(-c3ccnc(-c4cn(C)c(=O)n4-c4ccc(C(C)(C)C#N)cc4)c3)cc12 [Example A29, Methyl 5-(2-{3-[4-(cyanodimethylmethyl)phenyl]-1-methyl-2-oxo-2,3-dihydro-1H-imidazol-4-yl}pyridin-4-yl)-1H-pyrrolo[2,3-b]pyridine-3-carboxylate]",IC50,PI3Kbeta,100 to 10000 nM
same,IC50,[1],100 to 10000 nM
same,IC50,PI3Kalpha,0.1 to 100 nM
same,Kd,[2],0.1 to 100 nM
same,IC50,DNA-PK protein complex,0.1 to 100 nM
"CCc1cccc(-n2c(-c3cc(-c4cnc5[nH]ccc5c4)ccn3)cn(C)c2=O)c1 [Example A66, 3-(3-Ethylphenyl)-1-methyl-4-[4-(1H-pyrrolo[2,3-b]pyridin-5-yl)pyridin-2-yl]-1,3-dihydroimidazol-2-one]",IC50,PI3Kbeta,> 10000 nM
same,IC50,[1],> 10000 nM
same,IC50,PI3Kalpha,> 10000 nM
same,Kd,[2],> 10000 nM
same,IC50,DNA-PK protein complex,> 10000 nM
"Cn1cc(-c2cc(-c3cnc4[nH]ccc4c3)ccn2)n(-c2cccc(Oc3ccccc3)c2)c1=O [Example A90, 1-Methyl-3-(3-phenoxyphenyl)-4-[4-(1H-pyrrolo[2,3-b]pyridin-5-yl)pyridin-2-yl]-1,3-dihydroimidazol-2-one]",IC50,PI3Kbeta,100 to 10000 nM
same,IC50,[1],0.1 to 100 nM
same,IC50,PI3Kalpha,100 to 10000 nM
same,Kd,[2],0.1 to 100 nM
same,IC50,DNA-PK protein complex,0.1 to 100 nM
"Cn1cc(-c2cc(-c3cnc(N)c(C(F)(F)F)c3)ccn2)n(-c2ccc(N3CCNCC3)c(C(F)(F)F)c2)c1=O [Example A56, 4-(6-Amino-5-trifluoromethyl-[3,4′]bipyridinyl-2′-yl)-1-methyl-3-(4-piperazin-1-yl-3-trifluoromethylphenyl)-1,3-dihydroimidazol-2-one]",IC50,PI3Kbeta,100 to 10000 nM
same,IC50,[1],100 to 10000 nM
same,IC50,PI3Kalpha,100 to 10000 nM
same,Kd,[2],0.1 to 100 nM
same,IC50,DNA-PK protein complex,100 to 10000 nM
"CN1CCN(c2ccc(-n3c(-c4cc(-c5cnc6[nH]ccc6c5)ccn4)cn(C)c3=O)cc2C#N)CC1 [Example A83, 5-{3-Methyl-2-oxo-5-[4-(1H-pyrrolo[2,3-b]pyridin-5-yl)pyridin-2-yl]-2,3-dihydroimidazol-1-yl}-2-(4-methylpiperazin-1-yl)benzonitrile]",IC50,PI3Kbeta,100 to 10000 nM
same,IC50,[1],100 to 10000 nM
same,IC50,PI3Kalpha,100 to 10000 nM
same,Kd,[2],0.1 to 100 nM
same,IC50,DNA-PK protein complex,100 to 10000 nM
"Cn1cc(-c2cc(-c3ccc4[nH]ccc4c3)ccn2)n(-c2ccc(N3CCNCC3)c(C(F)(F)F)c2)c1=O [Example A57, 4-[4-(1H-Indol-5-yl)pyridin-2-yl]-1-methyl-3-(4-piperazin-1-yl-3-trifluoromethyl-phenyl)-1,3-dihydroimidazol-2-one]",IC50,PI3Kbeta,100 to 10000 nM
same,IC50,[1],100 to 10000 nM
same,IC50,PI3Kalpha,100 to 10000 nM
same,Kd,[2],100 to 10000 nM
same,IC50,DNA-PK protein complex,100 to 10000 nM
"COc1ccc(Cn2c(-c3cc(-c4cnc5[nH]ncc5c4)ccn3)cn(C)c2=O)cc1 [Example A109, 3-(4-Methoxybenzyl)-1-methyl-4-[4-(1H-pyrazolo[3,4-b]pyridin-5-yl)pyridin-2-yl]-1,3-dihydroimidazol-2-one]",IC50,PI3Kbeta,100 to 10000 nM
same,IC50,[1],100 to 10000 nM
same,IC50,PI3Kalpha,100 to 10000 nM
same,Kd,[2],100 to 10000 nM
same,IC50,DNA-PK protein complex,0.1 to 100 nM
"Cn1cc(-c2cc(-c3cnc4[nH]ccc4c3)ccn2)n(-c2ccc(N3CCOCC3)c(C(F)(F)F)c2)c1=O [Example A71, 1-Methyl-3-(4-morpholin-4-yl-3-trifluoromethylphenyl)-4-[4-(1H-pyrrolo[2,3-b]-pyridin-5-yl)pyridin-2-yl]-1,3-dihydroimidazol-2-one]",IC50,PI3Kbeta,100 to 10000 nM
same,IC50,[1],0.1 to 100 nM
same,IC50,PI3Kalpha,100 to 10000 nM
same,Kd,[2],0.1 to 100 nM
same,IC50,DNA-PK protein complex,0.1 to 100 nM

# Source: patent US8802866B2, “Pyridinylimidazolone derivatives for the inhibition of PI3 kinases” (Merck Patent GmbH, priority 2009, dated 2014)
